From EP4588908A1, “NEW PROSTACYCLIN FOR TREATING PULMONARY HYPERTENSION” (Shanghai Forefront Pharma Co., Ltd., priority 2023, dated 2025) come the findings set out here.

Series [1] has as its system male Sprague-Dawley rats. In words: Hemodynamic measurement (RVSP by right cardiac catheterization) in MCT-modelled PAH rats. The class given is in vivo. How it is done:
(§1) Twenty-eight 7-week-old male Sprague-Dawley rats (average weight of 200-250 g) were purchased from Vital River and were raised at the experimental site for 1 week of acclimatization (temperature 20°C-26°C, humidity 30%-70%, light-dark cycle ratio 1:1) until they were 8 weeks old.
(§2) Twenty-eight rats were randomized into the following 6 groups, including dosing groups, positive control groups, a negative control group and a healthy control group, and each was marked with ear tags.
(§3) • (1) Preparation of monocrotaline (MCT) solution: An adequate amount of MCT was weighed into a 50 mL solution of 20% ethanol-normal saline. After gentle shaking, the solution was transferred to a 50-mL centrifuge tube, and placed tilted in a thermostatic shaker at 37°C, 220 rpm for 12-14 hours to fully dissolve until no visible crystalline particles observed. • (2) Injection of MCT solution: The skin on the dorsal cervical region of the rats was gently lifted, MCT solution was subcutaneously injected at a dose of 60 mg/kg using a 1-mL syringe and the day was recorded as Day 0. • (3) Healthy control: The same volume of normal saline was injected in the same manner.
(§4) According to the concentration of 0.6 mg/mL and 1.2 mg/mL (3-mg/kg/day and 6-mg/kg/day dose groups), appropriate amounts of the test compound were weighed and dissolved in corresponding volume of pure water by shaking to obtain transparent solution, respectively; • (2) The resulting solutions were stored in a 4°C refrigerator. Remove and equilibrate to room temperature before use;
(§5) Starting from Day 14, the rats were weighed daily, and the corresponding solutions (test compound or normal saline) were administered intragastrically according to the grouping protocol until Day 27, for a total of 14 days; the intragastric dose was 0.5 mL/100 g, and the body weight and survival data of the rats were recorded.
On Day 28, the hemodynamic status of the rats was assessed using right cardiac catheterization: • (1) The PE-50 catheter, pressure transducer and pressure measuring workstation were prepared; the tubing was rinsed with heparinized saline to ensure that no bubbles remained in the tubing; the catheter was corrected to zero; • (2) The rats were anesthetized with 2% isoflurane at a flow rate of 2 L/min, and their limbs and incisors were fixed on the operating table with the cranial end to the operator; • (3) The fur on the surgical area of cervical region was shaved; • (4) The cervical skin was cut along the midline, pulled and fixed using hemostats, and the tissue was separated layer by layer using scissors to expose the right internal jugular vein; • (5) The internal jugular vein was bluntly dissected and isolated using hemostats; • (6) The distal end of the internal jugular vein was ligated using 4-0 sutures, and a suture was passed through the proximal end for later use; • (7) A V-shaped incision was made in the internal jugular vein using ophthalmic scissors, and a PE-50 catheter was inserted through the incision. After the catheter was placed, the pre-placed suture at the proximal end of the internal jugular vein was ligated to secure the catheter; • (8) The catheter reached the right atrium and right ventricle in turn; the right atrial pressure and right ventricular pressure were recorded; at least 5 stable waveforms were recorded at each site; 5 continuous waveforms were taken as segments, and more than 2 segments were intercepted to calculate the right ventricular systolic pressure (RVSP); • (9) The PE-50 catheter was removed and the examination was completed.

In series [2] the test system is male Sprague-Dawley rats. Briefly: Fulton index measurement RV/(LV+S) in MCT-modelled PAH rats. The class given is in vivo. How it is done:
as §1, §2, §3, §4, §5
The tube was shaken upside down 6-8 times to mix; • (3) The lungs and heart were exposed by further opening the chest cavity; • (4) The left atrial appendage was cut open, a tube of heparinized saline was slowly injected using a 5-mL syringe into the right atrial appendage to flush the pulmonary vessels; • (5) The rat heart, lung, liver, spleen and kidney tissues were kept and frozen, and fixed with formaldehyde solution.
After separating the heart, the non-ventricular parts (such as the atria, blood vessels, and valve rings) were cut off. The intraventricular thrombus was removed as much as possible using forceps. The right ventricle (RV) and left ventricle (LV) + ventricular septum (LV+S) were separated by cutting along tense junction between the RV and interventricular septum (S) using straight scissors. The tissues were dried with gauze and weighed separately. RV/(LV+S) was calculated as the Fulton index. [drawing 107]

Series [3] can be described thus: Dissolution in water when preparing the test compound solutions. The following applies: pure water; 0.6 mg/mL and 1.2 mg/mL gave transparent solution. The class given is physicochemical. Here is the method: as §4
[4] abbreviates: 3 mg/kg/day intragastric from Day 14, MCT 60 mg/kg rats, negative control 63±7.34, healthy control 22±2.41.
The mark [5] stands for this setting: 6 mg/kg/day intragastric from Day 14, MCT 60 mg/kg rats, negative control 63±7.34, healthy control 22±2.41.
The mark [6] stands for this setting: 3 mg/kg/day intragastric from Day 14, MCT 60 mg/kg rats, RV/(LV+S), negative control 0.61, healthy control 0.29.
The mark [7] stands for this setting: 6 mg/kg/day intragastric from Day 14, MCT 60 mg/kg rats, RV/(LV+S), negative control 0.61, healthy control 0.29.
Where [8] appears, read: 60(30mpk bid) mg/kg/day, Group 7, same experimental method.

As for `CCCCC[C@H](O)CC[C@H]1[C@H](O)[C@@H](CC)[C@@H]2Cc3c(cccc3OCC(=O)O)C[C@@H]21` [Compound 1], the “RVSP mmHg” value is recorded as 41 ± 16.27 mmHg with male Sprague-Dawley rats [1] (setting [4]); 41±16.27 mmHg in the series on male Sprague-Dawley rats [1] (3 mg/kg/day intragastric from Day 14, MCT 60 mg/kg rats, negative control 63±7.34, healthy control 22±2.41, listed as Compound 1M); 22 ± 4.36 mmHg in the series with male Sprague-Dawley rats [1] (setting [5]); 22+4.36 mmHg with male Sprague-Dawley rats [1] (6 mg/kg/day intragastric from Day 14, MCT 60 mg/kg rats, negative control 63±7.34, healthy control 22±2.41, listed as Compound 1H). For the same compound, the Fulton index in the series with male Sprague-Dawley rats [2] (setting [6]) is recorded as 0.37 ± 0.12; in the series on male Sprague-Dawley rats [2] (3 mg/kg/day intragastric from Day 14, MCT 60 mg/kg rats, RV/(LV+S), negative control 0.61, healthy control 0.29, listed as Compound 1M), 0.37+0.12; with male Sprague-Dawley rats [2] (setting [7]) it was 0.25 ± 0.27; with male Sprague-Dawley rats [2] (6 mg/kg/day intragastric from Day 14, MCT 60 mg/kg rats, RV/(LV+S), negative control 0.61, healthy control 0.29, listed as Compound 1H) it was 0.25±0.27. Besides, in series [3], the Solubility in water result is listed as “can be directly dissolved in water”.
For `CCCCC[C@H](O)CC[C@@H]1[C@H]2Cc3cccc(OCC(=O)O)c3C[C@H]2C[C@H]1O` [Compound C1, Treprostinil sodium 5.5-hydrate], the “RVSP mmHg” value with male Sprague-Dawley rats [1] (setting [4]) is given as 46 ± 13.45 mmHg; in the series on male Sprague-Dawley rats [1] (3 mg/kg/day intragastric from Day 14, MCT 60 mg/kg rats, negative control 63±7.34, healthy control 22±2.41, listed as Compound C1M) it was 46+13.45 mmHg; in the series with male Sprague-Dawley rats [1] (setting [5]), 38 ± 8.86 mmHg; in the series with male Sprague-Dawley rats [1] (6 mg/kg/day intragastric from Day 14, MCT 60 mg/kg rats, negative control 63±7.34, healthy control 22±2.41, listed as Compound C1H), 38+8.86 mmHg. Besides, the Fulton index in the series with male Sprague-Dawley rats [2] (setting [6]) is 0.38 ± 0.10; with male Sprague-Dawley rats [2] (3 mg/kg/day intragastric from Day 14, MCT 60 mg/kg rats, RV/(LV+S), negative control 0.61, healthy control 0.29, listed as Compound C1M), 0.38+0.10; with male Sprague-Dawley rats [2] (setting [7]) it was 0.37 ± 0.07; with male Sprague-Dawley rats [2] (6 mg/kg/day intragastric from Day 14, MCT 60 mg/kg rats, RV/(LV+S), negative control 0.61, healthy control 0.29, listed as Compound C1H), 0.37+0.07. The Solubility in water entry in series [3] is recorded as “can be directly dissolved in water”.
On to `O=C(O)COC[C@H]1CC[C@H](COC(=O)N(c2ccccc2)c2ccc(Cl)cc2)CC1` [Ralinepag], for which the “RVSP mmHg” value in the series with male Sprague-Dawley rats [1] (setting [8]) is given as 22 mmHg. The compound further yielded a Fulton index with male Sprague-Dawley rats [2] (setting [8]) of 0.35.
